Series [1] relates to C. violaceum CV026. Put plainly: Measurement of IC50 of compounds having an inhibitory effect on C. violaceum quorum sensing (purple pigment absorbance at 585 nm). It is filed as cell-based. Particulars: Chromobacterium violaceum, CV026, read-out: IC50 of compounds having bacterial quorum sensing inhibitory activity. How it is done:
2. Measurement of IC50 of Compounds Having an Inhibitory Effect on C. violaceum Quorum Sensing
2.1 The wells of a 12-well plate were marked as initial concentration, 2, 4, 8, 16, 32, 64, 128, 256, DMSO group, and a blank control group from left to right and from up to bottom, respectively.
2.2 The monoclonal C. violaceum CV026 grew on LB solid plate was cultured to exponational phase in a 5 ml fresh LB liquid culture medium, 50 μl was then taken for seeding in a 5 ml LB culture medium, and was cultured until the optical density OD value was about 1.0 at 585 nm; the culture was then mixed well with LB culture medium at a ratio of 1:9 by volume (with OD of about 0.15), and was added to a 12-well plate in an amount of 2 ml/well.
2.3 The compounds preliminarily screened to have quorum sensing inhibitory activity were dissolved respectively in DMSO (at a concentration of 0.065M), and then 10 μl was taken into 10 μl DMSO solution to achieve the purpose of 2-fold dilution, and so on. Each compound was gradiently diluted to a highest fold of 256 (gradient dilution of 2, 4, 8, 16, 32, 64, 128, 256 fold).
2.4 To each well, 15 μl 1000-fold diluted inducer C6-HSL (initial concentration of 0.125M) and 8 μl compound solution at each diluted gradient was added; to DMSO control group, 8 μl DMSO was added; to a blank control group, 8 μl LB culture medium was added. Finally, it was ensured that 2 ml culture in each of the 12-well plate was mixed well.
2.5 The 12-well plate was placed in a 30° C. shaker at 130 rpm and was cultured for 10-12 h.
2.6 After the culture was finished, 1 ml culture was taken from each well and was put in a 1.5 ml EP tube and then was centrifugated at 12000 rpm for 10 mins. […] 200 μl supernatant pigment was put in a 96-well culture plate, and was measured for absorbance value at 585 nm by a Microplate Reader, […] the absorbance value and the corresponding concentration were plotted to get the IC50 value.

Series [2] relates to C. violaceum CV026. Nature of the series: Preliminary screening of bacterial quorum sensing agonistic / inhibitory activity on LB plate (purple stain / white circle). It is filed as cell-based. Particulars: for Regulatory activity (bacterial quorum sensing regulatory activity): 1 μl of 0.065M compound spotted on plate, inhibitory screen with inducer C6-HSL, 30° C., 16-18 h; for Effect on bacterial quorum sensing (summary in words): summary of the activity evaluation experiments. How it is done:
1.1 Preparation work: different compounds to be tested (Compounds 1-40 prepared in Example 1-40) were weighted and then were dissolved in 200 μl DMSO (dimethyl sulfoxide) to prepare a solution at a concentration of 0.065M. 5.0 mg inducer, N-hexanoyl homoserine lactone (C6-HSL, purchased from Sigma Company), was weighted and was dissolved in 200 μl DMSO (at a concentration of 0.125M), and the compounds and the inducer were stored at 4 for further use. C. violaceum CV026 (donated by Professor McLean J C from Texas State University) in LB culture medium (LB culture medium consisting of 1% (percentage by mass) tryptone, 0.5% (percentage by mass) yeast extract, 1% (percentage by mass) NaCl and water) was cultured under shaking in a shaker at 30, 200 rpm to get the culture medium for further use.
1.2 Method for preliminary screening of compounds having agonistic activity: 400 μl C. violaceum CV026 (at a bacterial concentration of 1×10^8/ml) was added to 5 ml melted semi-solid LB culture medium, and was mixed well; the mixed culture medium was poured into a solid LB plate; when the mixed culture medium was solidified on the plate, lattice was made thereon; 1 μl of the dissolved compounds to be tested (Compounds 1-40 in Examples 1-40, at a concentration of 0.065M) was spotted on the plate; when the compounds on the plate was dried in air, the plate was put in a 30° C. oven upside down and was cultured for a period of 16-18 h. If the compound to be tested has an agonistic effect on C. violaceum CV026 on the LB plate, purple stain will be induced on the LB plate. The agonistic activity of a compound is determined depending on whether purple stain is induced for C. violaceum CV026 on LB plate as well as the purple depth.
1.3 Method for preliminary screening of compounds having inhibitory activity: the inducer C6-HSL was diluted gradiently to 1000 times by means of 2-fold dilution; 15 μl diluted inducer and 400 μl C. violaceum CV026 in exponential phase (at a bacterial concentration of 1×10^8/ml) were mixed well and then were added to a 5 ml melted semi-solid LB culture medium; the mixture of inducer, C. violaceum, and semi-solid LB was poured onto a solid LB plate; when the mixture was solidified on the plate, lattice was made thereon: 1 μl of the dissolved compounds to be tested (Compounds 1-40 in Examples 1-40, at a concentration of 0.065M) was spotted on the plate; when the compounds on the plate were dried in air, the plate was put in a 30° C. oven upside down and was cultured for a period of 16-18 h. If the compound to be tested has an inhibitory effect on C. violaceum CV026 on the LB plate, white circle will appear on the LB plate. The inhibitory activity of a compound is preliminary determined depending on the size of the white circle appeared after C. violaceum CV026 was inhibited on LB plate.
It is found after preliminary screening that 22 compounds according to the invention have bacterial quorum sensing regulatory activity, and the screening result was shown in Table 1.

From US9914711B2 (priority 2013, dated 2018) come the findings set out here.

The term IC50 denotes the concentration that gives 50% inhibition. In general, melting point refers to the temperature, or range, at which the solid turns liquid. With `O=C(NN1CCOC1=O)c1ccc([N+](=O)[O-])cc1` [Compound 7, 4-nitro-N-(2-oxo-oxazolidin-3-yl)benzamide], the melting point lay within 206 to 208 °C. Moreover, the IC50 with C. violaceum CV026 [1] amounted to 18.7 ± 2.59 µM. Moreover, in the series with C. violaceum CV026 [2], the “Regulatory activity (bacterial quorum sensing regulatory activity)” value (“Regulatory activity” for short) is given as “−” and the “Effect on bacterial quorum sensing (summary in words)” value (from here on “Effect on bacterial quorum sensing”) was “inhibitory effect on bacterial quorum sensing”.
As to `O=C(NN1CCOC1=O)c1ccc(Br)cc1` [Compound 12, 4-bromo-N-(2-oxo-oxazolidin-3-yl)benzamide], the melting point was 202 to 204 °C. Moreover, the half-maximal inhibitory concentration (IC50) in the series with C. violaceum CV026 [1] is 7.85 ± 1.71 µM. For the same compound, in the series on C. violaceum CV026 [2], the “Regulatory activity” value is reported as “±”; the “Effect on bacterial quorum sensing” value is “both an agonizing effect and an inhibitory effect”.
`CCc1ccc(C(=O)NN2CCOC2=O)cc1` [Compound 11, 4-ethyl-N-(2-oxo-oxazolidin-3-yl)benzamide] returned a melting point of 170 to 173 °C. In the series with C. violaceum CV026 [1], the 50% inhibitory concentration (IC50) is 13.9 ± 4.21 µM. In addition, in the series on C. violaceum CV026 [2], the “Regulatory activity” value is on record as “−” and the “Effect on bacterial quorum sensing” value is “inhibitory effect on bacterial quorum sensing”.
